Source: publication PMC8300761, “In Vitro Antifungal Activity and Toxicity of Dihydrocarvone-Hybrid Derivatives against Monilinia fructicola” (Antibiotics, 2021)
Values after ≈ are worked out from the molar mass of the structure shown.

Legend:
Artemia salina L. larvae = assay: brine shrimp lethality test (BSLT); assay type: in vivo; details: for LD50 (BSLT): Artemia salina larvae, 24 h, probit analysis
Method: The assay was carried out according to the principle and protocol previously described. Briefly, Artemia salina L. eggs were inserted into a box containing seawater; the box was placed under a UV lamp; after 48 h, the eggs hatched into larvae and were ready for the test. All of the compounds were dissolved in methanol at final concentrations of 1000 to 10 µg/mL. After 24 h, the live and dead shrimp were counted. The experiment was conducted in triplicate. The median lethal concentrations (LD50) with 95% confidence intervals were determined using the Probit analysis method. For LC50 values, probit analysis was used with Minitab V. 15 software (Minitab® Statistical Software, State College, PA, USA).

[1] = test system: Monilinia fructicola strain 1 (S1); assay: radial mycelial growth test, M. fructicola strain 1 (S1); assay type: cell-based; details: PDA, 120 h at 24 °C in the dark; for EC50: Monilinia fructicola, 120 h, n = 6, read-out: EC50 ± SD, mycelial growth inhibition; for EC50 ± SD, mycelial growth inhibition: n = 6
Description: (§1) Both strains (S1 and S2) of M. fructicola were kindly provided by the phytopathology laboratory of the Servicio Agrícola y Ganadero de Chile (SAG), Santiago, Chile. The isolate S1 was recovered from infected peach from commercial orchards in the O’Higgins region, Chile, and the isolate S2 was recovered from infected nectarines from commercial orchards in the province of Maipo, Metropolitan Region, Chile and identified to species level with a PCR assay developed by the molecular biology laboratory belonging to SAG; these were maintained on potato dextrose agar (PDA) and incubated for 120 h at 24 °C.
(§2) The antifungal activity of all dihidrocarvone-hybrid derivatives (2–9) against both strains of M. fructicola was determined by the radial test previously reported. The test compounds were dissolved in ethanol (5% v/v) and added to the potato dextrose agar medium (PDA) medium in the petri dishes to obtain a final concentration of 10, 25, 50, 150, and 250 µg/mL. The mycelial growth diameters were measured after 120 h of incubation at 24 °C in the dark, and the inhibition percentages were calculated with respect to the negative ethanol control. The commercial fungicides Mystic® 520 SC (Pyrimethanil 400 g/L, Trifloxystrobin 120 g/L) (Lot: PAIS004727; Bayer, Santiago, Chile) and BC-1000® (grapefruit seed and pulp extract (Citrus x paridisi), 50% w/v (500 g/L)) were used as positive controls and were measured under the same conditions as the compounds.
(§3) The results were expressed as the effective concentration (EC50) that reduced mycelial growth by 50%. This value was determined by regressing the values of the percentage inhibition of radial growth against the compound concentration values. The fit analysis was performed using the Origin Pro® V. 8.0 software (OriginLab Corporation, Northampton, Massachusetts, EE.UU). These experiments were performed in triplicate and each assay was performed twice (n = 6). Significant differences were determined using a one-way analysis of variance, followed by a pairwise comparison of means (LSD test; p < 0.05) (Microsoft Office Excel® 2016).

[2] = test system: Monilinia fructicola strain 2 (S2); assay: radial mycelial growth test, M. fructicola strain 2 (S2); assay type: cell-based; details: PDA, 120 h at 24 °C in the dark, n = 6, read-out: EC50 ± SD, mycelial growth inhibition
Description: as §1, §2, §3

[3] = test system: both strains of M. fructicola; assay: radial mycelial growth test, inhibition percentages over both strains; assay type: cell-based; details: Monilinia fructicola, range over strains 1 and 2, read-out: inhibition percentage of mycelial growth
Description: as §1
as §2, with “The test compounds were dissolved in ethanol (5% v/v) and added to the potato dextrose agar medium (PDA) medium in the petri dishes to obtain a final concentration of 10, 25, 50, 150, and 250 µg/mL.” left out, “compounds. […]” for “compounds.”

| EC50 [1] | EC50 ± SD, mycelial growth inhibition [1] | EC50 [2] | Structure (SMILES) | LD50 (BSLT) (Artemia salina L. larvae) | times less toxic than the commercial control of M. fructicola (BSLT) (Artemia salina L. larvae; compared with the commercial control (Mystic 520 SC)) | inhibition at 150 µg/mL ([3]; 150 µg/mL) | inhibition at 250 µg/mL ([3]; 250 µg/mL) |
| --- | --- | --- | --- | --- | --- | --- | --- |
| > 250 µg/mL | – | > 250 µg/mL | C=C(C)[C@@H]1CCC(C)C(=O)C1=Cc1ccccc1 (stereo partly drawn) [Compound 2, (3S)-2-benzylidene-3-isopropenyl-6-methylcyclohexanone] | >1000 µg/mL | – | – | – |
| 273.2 ± 0.9 µg/mL (≈ 1010 µM) | – | 39.6 ± 1.1 µg/mL (≈ 146 µM) | C=C(C)[C@@H]1CCC(C)C(=O)C1=Cc1cccc(OC)c1 (stereo partly drawn) [Compound 4, (3S)-3-isopropenyl-2-(3-methoxybenzylidene)-6-methylcyclohexanone] | >1000 µg/mL | – | – | – |
| > 250 µg/mL | – | 58 ± 0.7 µg/mL (≈ 215 µM) | C=C(C)[C@@H]1CCC(C)C(=O)C1=Cc1ccccc1OC (stereo partly drawn) [Compound 3, (3S)-3-isopropenyl-2-(2-methoxybenzylidene)-6-methylcyclohexanone] | >1000 µg/mL | – | – | – |
| > 250 µg/mL | – | 23.1 ± 1.2 µg/mL (≈ 85.4 µM) | C=C(C)[C@@H]1CCC(C)C(=O)C1=Cc1ccc(OC)cc1 (stereo partly drawn) [Compound 5, (3S)-3-isopropenyl-2-(4-methoxybenzylidene)-6-methylcyclohexanone] | >1000 µg/mL | – | – | – |

More lines, now with the values behind:

| Structure (SMILES) | EC50 [1] | EC50 ± SD, mycelial growth inhibition [1] | EC50 [2] | LD50 (BSLT) (Artemia salina L. larvae) | times less toxic than the commercial control of M. fructicola (BSLT) (Artemia salina L. larvae; compared with the commercial control (Mystic 520 SC)) | inhibition at 150 µg/mL ([3]; 150 µg/mL) | inhibition at 250 µg/mL ([3]; 250 µg/mL) |
| --- | --- | --- | --- | --- | --- | --- | --- |
| C=C(C)[C@@H]1CCC(C)C(=O)C1=Cc1ccc2c(c1)OCO2 (stereo partly drawn) [Compound 7, (3S)-2-(1,3-benzodioxol-5-ylmethylene)-3-isopropenyl-6-methylcyclohexanone] | 146 to 148 µg/mL (≈ 513 to 521 µM) | 148.1 ± 1.4 µg/mL (≈ 521 µM) | 18.1 µg/mL (≈ 63.7 µM) | 910 µg/mL | – | – | – |
| C=C(C)[C@@H]1CCC(C)C(=O)C1=Cc1ccc(OC)c(OC)c1 (stereo partly drawn) [Compound 6, (3S)-2-(3,4-dimethoxybenzylidene)-3-isopropenyl-6-methylcyclohexanone] | > 250 µg/mL | – | 47.7 ± 0.8 µg/mL (≈ 159 µM) | 954 µg/mL | – | – | – |
| C=C(C)[C@@H]1CCC(C)C(=O)C1=Cc1ccc(O)cc1 (stereo partly drawn) [Compound 9, (3S)-2-(4-hydroxybenzylidene)-3-isopropenyl-6-methylcyclohexanone] | > 250 µg/mL | – | > 250 µg/mL | 847 µg/mL | 80 times | – | – |
| C=C(C)[C@@H]1CCC(C)C(=O)C1 (some centres unmarked) [Compound 1, Dihydrocarvone] | > 250 µg/mL | – | > 250 µg/mL | 550 µg/mL | – | – | – |
| C=C(C)[C@@H]1CCC(C)C(=O)C1=Cc1cccc(O)c1 (stereo partly drawn) [Compound 8, (3S)-2-(3-hydroxybenzylidene)-3-isopropenyl-6-methylcyclohexanone] | 146 to 148 µg/mL (≈ 569 to 578 µM) | 145.9 ± 1.7 µg/mL (≈ 569 µM) | 15.7 ± 1.3 µg/mL (≈ 61.2 µM) | 890 µg/mL | – | 47 to 88% | 62 to 97% |
